Structures can show the parent of a compound that is named as a salt.
Target: T1, human clotting factor VIIa (Homo sapiens, UniProt P08709)
T1 construct: a human clotting factor VIIa (hereinafter, “Factor VIIa”) purified sample; purchased Enzyme Research Laboratories HFVIIa
Test: Inhibitory activity against clotting factor VIIa (chromogenic substrate Spectrozyme FVIIa, TF/Factor VIIa enzyme solution)
Format: biochemical
Details: human Factor VIIa 5 nmol/L with human TF 10 nmol/L, room temperature 40 minutes, 405 nm
How it was run: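 Human Factor VIIa (5 nmol/L) with human TF (10 nmol/L) in Tris-BSA buffer pH 7.4 containing 15 mmol/L CaCl2 and cephalin, with Spectrozyme FVIIa substrate. Reaction 40 min at room temperature; 4-nitroanilide read at 405 nm. IC50 by non-linear regression over 100 μmol/L–0.1 nmol/L.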

T1 sequence (P08709 213-466 limits assumed): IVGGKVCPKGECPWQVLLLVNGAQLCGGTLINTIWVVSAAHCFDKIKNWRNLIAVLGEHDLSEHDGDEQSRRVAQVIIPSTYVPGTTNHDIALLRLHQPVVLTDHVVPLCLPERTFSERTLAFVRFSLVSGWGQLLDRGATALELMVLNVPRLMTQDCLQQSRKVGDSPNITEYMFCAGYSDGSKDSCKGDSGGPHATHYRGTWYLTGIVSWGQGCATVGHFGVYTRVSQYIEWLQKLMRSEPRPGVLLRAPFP
T1 sequence (P08709 61-212 limits assumed): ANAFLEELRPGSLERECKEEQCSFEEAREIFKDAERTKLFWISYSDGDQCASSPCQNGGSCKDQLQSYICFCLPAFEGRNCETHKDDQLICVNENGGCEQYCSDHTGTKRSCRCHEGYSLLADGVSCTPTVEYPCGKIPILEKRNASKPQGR
T1 sequence (P13726 33-295 partner): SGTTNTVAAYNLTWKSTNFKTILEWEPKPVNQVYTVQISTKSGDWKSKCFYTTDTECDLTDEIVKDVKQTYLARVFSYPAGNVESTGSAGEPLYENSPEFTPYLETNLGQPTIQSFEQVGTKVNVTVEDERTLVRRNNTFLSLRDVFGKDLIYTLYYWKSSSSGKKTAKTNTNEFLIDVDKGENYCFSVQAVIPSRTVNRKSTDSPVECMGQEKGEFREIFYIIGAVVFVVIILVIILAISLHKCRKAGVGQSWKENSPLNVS

SMILES | IC50
COc1ccc(C(Nc2ccc(C(=N)N)cc2)c2nn(-c3ccccc3C(N)=O)c(=O)[nH]2)cc1OC (racemic) [Example 110, (R) and (S)-2-{3-[(4-carbamimidoylphenylamino)-(3,4-dimethoxyphenyl)methyl]-5-oxo-4,5-dihydro-1H-[1,2,4]triazol-1-yl}benzamide acetate] | 6.6 nM
COc1cc(O[C@H]2CCOC2)cc(C(Nc2ccc(C(=N)N)cc2)c2nn(-c3ncccn3)c(=O)[nH]2)c1 (mixture of isomers) [Example 4, 4-{[(R) and (S)-{3-methoxy-5-[(S)-(tetrahydrofuran-3-yl)oxy]phenyl}-(5-oxo-1-pyrimidin-2-yl-4,5-dihydro-1H-[1,2,4]triazol-3-yl)methyl]amino}benzamidine acetate] | 3 nM
COc1cc(OCC#N)c(F)c(C(Nc2ccc(C(=N)N)cc2)c2nn(-c3cccnn3)c(=O)[nH]2)c1 (racemic) [Example 148, (R) and (S)-{[(3-cyanomethoxy-2-fluoro-5-methoxyphenyl)-(5-oxo-1-pyridazin-3-yl-4,5-dihydro-1H-[1,2,4]triazol-3-yl)methyl]amino}benzamidine acetate] | 8.7 nM
COc1cc(OCCO)c(F)c(C(Nc2ccc(C(=N)N)cc2)c2nn(-c3ccsc3C(=O)O)c(=O)[nH]2)c1 (racemic) [Example 228, (R) and (S)-3-(3-{(4-Carbamimidoylphenylamino)-[2-fluoro-3-(2-hydroxyethoxy)-5-methoxyphenyl]methyl}-5-oxo-4,5-dihydro[1,2,4]triazol-1-yl)thiophene-2-carboxylic acid] | 2.6 nM
C#Cc1cc(O[C@H]2CCOC2)cc(C(Nc2ccc(C(=N)N)cc2)c2nn(-c3ncccn3)c(=O)[nH]2)c1 (mixture of isomers) [Example 45(2), 4-[((R) and (S)-{3-ethynyl-5-[(S)-(tetrahydrofuran-3-yl)oxy]phenyl}-(5-oxo-1-pyrimidin-2-yl-4,5-dihydro-1H-[1,2,4]triazol-3-yl)methyl)amino]benzamidine acetate] | 1.5 nM
COc1cc(C(Nc2ccc(C(=N)N)cc2)c2nn(-c3ccccc3C(=O)O)c(=O)[nH]2)cc(C)n1 (racemic) [Example 38, (R) and (S)-2-{3-[(4-carbamimidoylphenylamino)-(2-methoxy-6-methylpyridin-4-yl)methyl]-5-oxo-4,5-dihydro-[1,2,4]triazol-1-yl}benzoic acid acetate] | 7.4 nM
COc1cc(OCCCO)c(F)c(C(Nc2ccc(C(=N)N)cc2)c2nn(-c3ncsc3C(=O)O)c(=O)[nH]2)c1 (racemic) [Example 163, (R) and (S)-4-(3-{(4-carbamimidoylphenylamino)-[2-fluoro-3-(3-hydroxypropoxy)-5-methoxyphenyl]methyl}-5-oxo-4,5-dihydro-[1,2,4]triazol-1-yl)thiazole-5-carboxylic acid] | 10.5 nM
C=Cc1cc(O)cc(C(Nc2ccc(C(=N)N)cc2)c2nn(-c3ncccn3)c(=O)[nH]2)c1 (racemic) [Example 47, 4-{[(3-hydroxy-5-vinylphenyl)-(5-oxo-1-pyrimidin-2-yl-4,5-dihydro-1H-[1,2,4]triazol-3-yl)methyl]amino}benzamidine] | 8.9 nM
COc1cc(OCCO)c(F)c(C(Nc2ccc(C(=N)N)cc2)c2nn(-c3ncccn3)c(=O)[nH]2)c1 (racemic) [Example 153, 4-({[2-fluoro-3-(2-hydroxyethoxy)-5-methoxyphenyl]-(5-oxo-1-pyrimidin-2-yl-4,5-dihydro-1H-[1,2,4]triazol-3-yl)methyl}amino)benzamidine] | 4.8 nM
COc1cc(C(Nc2ccc(C(=N)N)cc2)c2nn(-c3ccsc3C(=O)O)c(=O)[nH]2)cc(OC)c1OC (racemic) [Example 227, 3-{3-[(R) and (S)-(4-Carbamimidoylphenylamino)-(3,4,5-trimethoxyphenyl)methyl]-5-oxo-4,5-dihydro-[1,2,4]triazol-1-yl}thiophene-2-carboxylic acid] | 4.5 nM
CCc1cc(OCCCO)c(F)c(C(Nc2ccc(C(=N)N)cc2)c2nn(-c3ncccc3N)c(=O)[nH]2)c1 (racemic) [Example 205, (R) and (S)-4-({[1-(3-Aminopyridin-2-yl)-5-oxo-4,5-dihydro-1H-[1,2,4]triazol-3-yl]-[5-ethyl-2-fluoro-3-(3-hydroxypropoxy)phenyl]methyl}amino)benzamidine acetate] | 2.3 nM
COc1cc(OCCF)c(F)c(C(Nc2ccc(C(=N)N)cc2)c2nn(-c3cnccn3)c(=O)[nH]2)c1 (racemic) [Example 100, 4-{[(R) and (S)-[2-fluoro-3-(2-fluoroethoxy)-5-methoxyphenyl]-(5-oxo-1-pyrazin-2-yl-4,5-dihydro-1H-[1,2,4]triazol-3-yl)methyl]amino}benzamidine acetate] | 5.3 nM
COc1cc(CO)cc(C(Nc2ccc(C(=N)N)cc2)c2nn(-c3ncccn3)c(=O)[nH]2)c1 (racemic) [Example 12, (R) and (S)-4-{[(3-hydroxymethyl-5-methoxyphenyl)-(5-oxo-1-pyrimidin-2-yl-4,5-dihydro-1H-[1,2,4]triazol-3-yl)methyl]amino}benzamidine trifluoroacetate] | 33.8 nM
COc1cc(C(Nc2ccc(C(=N)N)cc2)c2nn(-c3ncccn3)c(=O)[nH]2)cc2c1OCC2 (racemic) [Example 31, (R) and (S)-4-{[(7-methoxy-2,3-dihydrobenzofuran-5-yl)-(5-oxo-1-pyrimidin-2-yl-4,5-dihydro-1H-[1,2,4]triazol-3-yl)methyl]amino}benzamidine acetate] | 7.1 nM
COc1cc(C(Nc2ccc(C(=N)N)cc2)c2nn(-c3ncsc3C(N)=O)c(=O)[nH]2)c(F)c2c1OCOC2 (racemic) [Example 164, (R) and (S)-4-{3-[(4-carbamimidoylphenylamino)-(5-fluoro-8-methoxy-4H-benzo[1,3]dioxin-6-yl)methyl]-5-oxo-4,5-dihydro-[1,2,4]triazol-1-yl}thiazole-5-carboxylic acid amide] | 24.5 nM
COc1cc(C(Nc2ccc(C(=N)N)cc2)c2nn(-c3ccccc3C(=O)O)c(=O)[nH]2)c(F)cc1OCCO (racemic) [Example 178, (R) and (S)-2-(3-{(4-carbamimidoylphenylamino)-[2-fluoro-4-(2-hydroxyethoxy)-5-methoxyphenyl]methyl}-5-oxo-4,5-dihydro-[1,2,4]triazol-1-yl)benzoic acid] | 14.3 nM
COc1cc(C(Nc2ccc(C(=N)N)cc2)c2nn(-c3ncccn3)c(=O)[nH]2)c(F)c2c1OCCO2 (racemic) [Example 41, (R) and (S)-4-{[(5-fluoro-8-methoxy-2,3-dihydrobenzo[1,4]dioxin-6-yl)-(5-oxo-1-pyrimidin-2-yl-4,5-dihydro-1H-[1,2,4]triazol-3-yl)methyl]amino}benzamidine acetate] | 6.4 nM

Continued, values first:

IC50 | SMILES
9.4 nM | CCOc1cc(C(Nc2ccc(C(=N)N)cc2)c2nn(-c3ncccn3)c(=O)[nH]2)cnc1OC (racemic) [Example 160, 4-{[(R) and (S)-(5-ethoxy-6-methoxypyridin-3-yl)-(5-oxo-1-pyrimidin-2-yl-4,5-dihydro-1H-[1,2,4]triazol-3-yl)methyl]amino}benzamidine acetate]
7 nM | COc1cc(F)c(C(Nc2ccc(C(=N)N)cc2)c2nn(-c3cccnn3)c(=O)[nH]2)cc1OC (racemic) [Example 119, (R) and (S)-4-{[(2-fluoro-4,5-dimethoxyphenyl)-(5-oxo-1-pyridazin-3-yl-4,5-dihydro-1H-[1,2,4]triazol-3-yl)methyl]amino}benzamidine acetate]
8.9 nM | COc1cc(OCF)c(F)c(C(Nc2ccc(C(=N)N)cc2)c2nn(-c3ncccn3)c(=O)[nH]2)c1 (racemic) [Example 103, 4-{[(R) and (S)-(2-fluoro-3-fluoromethoxy-5-methoxyphenyl)-(5-oxo-1-pyrimidin-2-yl-4,5-dihydro-1H-[1,2,4]triazol-3-yl)methyl]amino}benzamidine acetate]
52.4 nM | COc1cc(OCCO)c(F)c(C(Nc2ccc(C(=N)N)c(F)c2)c2nn(-c3ncccn3)c(=O)[nH]2)c1 (racemic) [Example 218, 2-Fluoro-4-{[[2-fluoro-3-(2-hydroxyethoxy)-5-methoxyphenyl]-(5-oxo-1-pyrimidin-2-yl-4,5-dihydro-1H-[1,2,4]triazol-3-yl)methyl]amino}benzamidine]
11.2 nM | COc1cc(C(Nc2ccc(C(=N)N)cc2)c2nn(-c3ncccc3F)c(=O)[nH]2)cc(OC)n1 (racemic) [Example 56, (R) and (S)-4-{[(2,6-dimethoxypyridin-4-yl)-[1-(3-fluoropyridin-2-yl)-5-oxo-4,5-dihydro-1H-[1,2,4]triazol-3-yl)methyl]amino}benzamidine acetate]
9.2 nM | COc1cc(C(Nc2ccc(C(=N)N)cc2)c2nn(-c3cccnn3)c(=O)[nH]2)cc(OCCF)c1OC (racemic) [Example 89, 4-{[(R) and (S)-[3-(2-fluoroethoxy)-4,5-dimethoxyphenyl]-(5-oxo-1-pyridazin-3-yl-4,5-dihydro-1H-[1,2,4]triazol-3-yl)methyl]amino}benzamidine acetate]
2.7 nM | COc1cc(C(Nc2ccc(C(=N)N)cc2)c2nn(-c3ncccc3F)c(=O)[nH]2)cc2c1OCCC2 (racemic) [Example 29, (R) and (S)-4-({[1-(3-fluoropyridin-2-yl)-5-oxo-4,5-dihydro-1H-[1,2,4]triazol-3-yl]-(8-methoxychroman-6-yl)methyl}amino)benzamidine acetate]
24.1 nM | COc1cc(OCCO)c(F)c(C(Nc2ccc(C(=N)N)cc2)c2nn(-c3ncc[nH]c3=O)c(=O)[nH]2)c1 (racemic) [Example 199, (R) and (S)-4-({[2-Fluoro-3-(2-hydroxyethoxy)-5-methoxyphenyl]-[5-oxo-1-(3-oxo-3,4-dihydropyrazin-2-yl)-4,5-dihydro-1H-[1,2,4]triazol-3-yl]methyl}amino)benzamidine acetate]

Source: patent US7816522B2, “Triazolone derivatives” (Eisai Co., Ltd., priority 2006, dated 2010)
